We go through one substance from US12122973B2, “Guanidinium-based ionic liquid and its use as a lubricant additive” (TOTALENERGIES ONETECH, priority 2020, dated 2024).

A short description of data set [1]: Solubility test of the ionic liquid in base oil. The class given is physicochemical. To be noted: lubricant composition of IL1 and base oil; room temperature (15-25° C.) and 60° C.; limpid after three months. From the text:
In order to be used in a lubricant composition, the guanidinium-based ionic liquid must preferably be soluble in the base oil which represents the major part of the lubricant composition. A compound is oil-soluble when it can be solubilized at a concentration of at least 0.01% by weight with regards to the weight of a base oil, at room temperature. In order to check that the guanidinium-based ionic liquid is oil-soluble, a test is disclosed in the experimental part.
In order to check that the guanidinium-based ionic liquid is oil-soluble, the following test has been achieved:
100 mL of the lubricant composition comprising IL1 and the base oil is introduced into two reaction tubes. One of the tubes is maintained at room temperature (between 15 and 25° C.) and the other reaction tube is placed in an oven at 60° C.
After three months, the lubricant composition of both reaction tubes was limpid.

The nature of data set [2]: Base number (BN/TBN) according to ASTM D2896. The data set is classed as physicochemical. Particulars: neat ionic liquid. The method, then: An oil's neutralization capacity is measured by its BN or Base Number, characterized by its basicity. It is measured according to standard ASTM D-2896 and is expressed as an equivalent in milligrams of potash per gram of oil (also called “mg of KOH/g” or “BN point”). The BN is a standard criterion making it possible to adjust the basicity of the cylinder oils to the sulphur content of the fuel oil used, in order to be able to neutralize all of the sulphur contained in the fuel, and capable of being converted to sulphuric acid by combustion and hydrolysis.
The base number of IL1 is 61 mg KOH/g according to ASTM D2896.

Consider “1,1,3,3-tetramethylguanidinium tert-Octylphenylpolyethoxyethanolate [IL1]”, for which, in data set [1], the “solubility in the oil” value was “soluble in the oil”. The substance also gave a base number in data set [2] of 61 mg KOH/g.
